Test results taken from PubChem BioAssay AID274 (DTP/NCI, 2004).
Where “and” joins values, the source holds several entries; their conditions need not be identical. Equal entries are not always repeated. Toxic doses and inconclusive results are not listed. Rule for the calls: active = survival T/C of 150% or more; inactive = T/C below 125% in these data. Numbered stars: 1 amine (or outer) side, 2 acyl side, 3 side chain; on linkers, the order of the positions; unused ones are H or OH. Bridge positions count the residues as written; N and C are the ends. Square brackets hold non-standard residues; d marks the D form. Peptide text beside a SMILES is read from it. I, II: the chains in the order shown. * marks the point of attachment. Actinocin(9to1) = Cc1c2oc3c(C)ccc(C(=O)[*:1])c3nc-2c(C(=O)[*:2])c(N)c1=O; Trt = c1ccc(C(c2ccccc2)(c2ccccc2)*)cc1; aThr = C[C@H](O)[C@H](N)C(=O)O; NMeV = CN[C@H](C(=O)O)C(C)C; Cbz = O=C(OCc1ccccc1)*; Sar = CNCC(=O)O

Test system: BDF1 mice, Lewis lung carcinoma iv, survival T/C
Assay: NCI In Vivo Anticancer Drug Screen. Data for tumor model Lewis Lung Carcinoma (intravenous) in B6D2F1 (BDF1) mice
Conditions: endpoint: median survival time, higher = longer survival
Method: The antitumor activity of compounds was measured in mice bearing transplantable tumors. Survival or tumor size were measured and the results are expressed as the measurement made in the treated group (T) divided by the measurement made in the vehicle treated control group (C). The tumor model used in this assay is Lewis Lung Carcinoma (intravenous) in B6D2F1 (BDF1) mice

[1] = dose: 0.75 mg/kg/injection, schedule: Q01DX009 (ip), vehicle: Klucel (hydroxypropylcellulose) (HPC)
[2] = dose: 1.5 mg/kg/injection, schedule: Q01DX009 (ip), vehicle: Klucel (hydroxypropylcellulose) (HPC)
[3] = dose: 200.0 mg/kg/injection, schedule: Q01DX009 (ip), vehicle: saline
[4] = dose: 50.0 mg/kg/injection, schedule: Q01DX009 (ip), vehicle: saline with Tween-80
[5] = dose: 100.0 mg/kg/injection, schedule: Q01DX009 (ip), vehicle: saline with Tween-80
[6] = dose: 12.5 mg/kg/injection, schedule: Q01DX009 (ip), vehicle: saline with Tween-80
[7] = dose: 25.0 mg/kg/injection, schedule: Q01DX009 (ip), vehicle: saline with Tween-80
[8] = dose: 1.0 mg/kg/injection, schedule: Q01DX009 (ip), vehicle: saline

Measured: T/C

COC1/C=C\C=C(/C)C(=O)NC2=CC(=O)C=C(C2=O)C(OC)C(C)CC(OC)C(OC)C(C)/C=C(/C)C1OC(N)=O (stereo not drawn)
inactive: dose: 0.18 mg/kg/injection, schedule: Q01DX009 (ip), vehicle: Klucel (hydroxypropylcellulose) (HPC) 112 % of control | dose: 0.37 mg/kg/injection, schedule: Q01DX009 (ip), vehicle: Klucel (hydroxypropylcellulose) (HPC) 115 % of control | [1] 112 % of control | [2] 105 % of control

C(CSC1=NCCN1)CSC1=NCCN1
inactive: dose: 6.25 mg/kg/injection, schedule: Q01DX009 (ip), vehicle: saline 93 % of control | dose: 12.5 mg/kg/injection, schedule: Q01DX009 (ip), vehicle: saline 100 % of control | dose: 25.0 mg/kg/injection, schedule: Q01DX009 (ip), vehicle: saline 93 % of control | dose: 50.0 mg/kg/injection, schedule: Q01DX009 (ip), vehicle: saline 93 % of control | dose: 100.0 mg/kg/injection, schedule: Q01DX009 (ip), vehicle: saline 102 % of control | [3] 100 % of control

CC(C)NNC(=O)c1ccncc1
inactive: dose: 19.4 mg/kg/injection, schedule: Q01DX007 (ip), vehicle: Klucel (hydroxypropylcellulose) (HPC) 95 % of control | dose: 32.4 mg/kg/injection, schedule: Q01DX007 (ip), vehicle: Klucel (hydroxypropylcellulose) (HPC) 91 % of control | dose: 54.0 mg/kg/injection, schedule: Q01DX007 (ip), vehicle: Klucel (hydroxypropylcellulose) (HPC) 95 % of control | dose: 90.0 mg/kg/injection, schedule: Q01DX007 (ip), vehicle: Klucel (hydroxypropylcellulose) (HPC) 96 % of control | dose: 150.0 mg/kg/injection, schedule: Q01DX007 (ip), vehicle: Klucel (hydroxypropylcellulose) (HPC) 91 % of control

O=C(O)CC[S-].[Ag+]
inactive: [4] 99 % of control | [5] 102 % of control | dose: 200.0 mg/kg/injection, schedule: Q01DX009 (ip), vehicle: saline with Tween-80 91 % of control

COC1NC(=O)NC(=O)C1=[N+]=[N-] (stereo not drawn)
inactive: dose: 2.0 mg/kg/injection, schedule: Q01DX009 (ip), vehicle: water 96 % of control | dose: 4.0 mg/kg/injection, schedule: Q01DX009 (ip), vehicle: water 98 % of control | dose: 8.0 mg/kg/injection, schedule: Q01DX009 (ip), vehicle: water 100 % of control

COC1CC(CC2CCC(C)C(C(C)C(=O)O)O2)OC2(OC(C)(C3CCC(C)(C4OC(C5OC(O)(CO)C(C)CC5C)CC4C)O3)CC2C)C1C (stereo not drawn)
inactive: dose: 0.31 mg/kg/injection, schedule: Q01DX009 (ip), vehicle: Klucel (hydroxypropylcellulose) (HPC) 99 % of control | dose: 0.63 mg/kg/injection, schedule: Q01DX009 (ip), vehicle: Klucel (hydroxypropylcellulose) (HPC) 94 % of control | dose: 1.25 mg/kg/injection, schedule: Q01DX009 (ip), vehicle: Klucel (hydroxypropylcellulose) (HPC) 100 % of control | dose: 5.0 mg/kg/injection, schedule: Q01DX009 (ip), vehicle: Klucel (hydroxypropylcellulose) (HPC) 96 % of control

CC(C)CCCCCCCCCCCCC(=O)NCC(=O)NC1C(O)C(O)C(Nc2ncnc3nc[nH]c23)OC1C(O)CO (stereo not drawn)
inactive: dose: 0.25 mg/kg/injection, schedule: Q01DX009 (ip), vehicle: Klucel (hydroxypropylcellulose) (HPC) 102 % of control | dose: 1.0 mg/kg/injection, schedule: Q01DX009 (ip), vehicle: Klucel (hydroxypropylcellulose) (HPC) 90 % of control | dose: 2.0 mg/kg/injection, schedule: Q01DX009 (ip), vehicle: Klucel (hydroxypropylcellulose) (HPC) 93 % of control

O=[N+]([O-])c1cc([N+](=O)[O-])c(Nn2c3ccccc3c3ccccc32)c([N+](=O)[O-])c1
inactive: [6] 114 % of control | [7] 105 % of control | [4] 91 % of control

CC(C)NCC(O)COc1cccc2ccccc12 (stereo not drawn)
inactive: dose: 8.0 mg/kg/injection, schedule: Q01DX009 (ip), vehicle: Klucel (hydroxypropylcellulose) (HPC) 90 % of control | dose: 16.0 mg/kg/injection, schedule: Q01DX009 (ip), vehicle: Klucel (hydroxypropylcellulose) (HPC) 96 % of control | dose: 32.0 mg/kg/injection, schedule: Q01DX009 (ip), vehicle: Klucel (hydroxypropylcellulose) (HPC) 92 % of control | dose: 64.0 mg/kg/injection, schedule: Q01DX009 (ip), vehicle: Klucel (hydroxypropylcellulose) (HPC) 100 % of control

CC(=O)CC(C)=O.CC(=O)CC(C)=O.O=N[O-].O=N[O-].[Co]
inactive: [6] 103 % of control | [7] 96 % of control | [4] 107 % of control

O=C(CCN1CC1)Nc1cccc(NC(=O)CCN2CC2)c1
inactive: dose: 2.5 mg/kg/injection, schedule: Q01DX009 (ip), vehicle: saline with Tween-80 110 % of control | dose: 5.0 mg/kg/injection, schedule: Q01DX009 (ip), vehicle: saline with Tween-80 106 % of control | dose: 10.0 mg/kg/injection, schedule: Q01DX009 (ip), vehicle: saline with Tween-80 123 % of control

Cc1c2oc3c(C)ccc(C(=O)N[C@@H]4C(=O)N[C@H](C(C)C)C(=O)N5CCC[C@H]5C(=O)N(C)CC(=O)N(C)[C@@H](C(C)C)C(=O)O[C@H]4C)c3nc-2c(C(=O)N[C@@H]2C(=O)N[C@H](C(C)C)C(=O)N3CCC[C@H]3C(=O)N(C)CC(=O)N(C)[C@@H](C(C)C)C(=O)O[C@H]2C)c(N)c1=O (I: [aThr][dV]P[Sar][NMeV] / II: [aThr][dV]P[Sar][NMeV]; ester I:1-I:C, II:1-II:C; linker I:N-II:N via Actinocin(9to1))
inactive: dose: 65.0 micrograms/kg/injection, schedule: Q04DX003 (ip), vehicle: saline + alcohol 91 % of control | dose: 108.0 micrograms/kg/injection, schedule: Q04DX003 (ip), vehicle: saline + alcohol 92 % of control and 94 % of control | dose: 180.0 micrograms/kg/injection, schedule: Q04DX003 (ip), vehicle: saline + alcohol 97 % of control and 104 % of control | dose: 259.0 micrograms/kg/injection, schedule: Q01DX001 (ip), vehicle: saline + alcohol 94 % of control | dose: 300.0 micrograms/kg/injection, schedule: Q04DX003 (ip), vehicle: saline + alcohol 95 % of control and 106 % of control | dose: 432.0 micrograms/kg/injection, schedule: Q01DX001 (ip), vehicle: saline + alcohol 98 % of control

Nc1ccc2ccc(O)cc2c1
inactive: [7] 100 % of control | [4] 99 % of control | [5] 91 % of control

O=C1OC(C(O)CO)C(O)=C1O (stereo not drawn)
inactive: [3] 112 % of control | dose: 400.0 mg/kg/injection, schedule: Q01DX009 (ip), vehicle: saline 100 % of control

COC(=O)C(CSC(c1ccccc1)(c1ccccc1)c1ccccc1)NC(=O)C(CC(N)=O)NC(=O)OCc1ccccc1 (stereo not drawn) (Cbz-Asn-Cys(Trt)-OMe; configuration not given here)
inactive: dose: 12.5 mg/kg/injection, schedule: Q01DX009 (ip), vehicle: distilled water + Tween-80 103 % of control | dose: 25.0 mg/kg/injection, schedule: Q01DX009 (ip), vehicle: distilled water + Tween-80 101 % of control | dose: 50.0 mg/kg/injection, schedule: Q01DX009 (ip), vehicle: distilled water + Tween-80 89 % of control | dose: 100.0 mg/kg/injection, schedule: Q01DX009 (ip), vehicle: distilled water + Tween-80 100 % of control | dose: 200.0 mg/kg/injection, schedule: Q01DX009 (ip), vehicle: distilled water + Tween-80 105 % of control | dose: 400.0 mg/kg/injection, schedule: Q01DX009 (ip), vehicle: distilled water + Tween-80 98 % of control

NC(=O)c1cn(C2OC(CO)C(O)C2O)c2ncnc(N)c12 (stereo not drawn)
inactive: dose: 0.38 mg/kg/injection, schedule: Q01DX009 (ip), vehicle: Klucel (hydroxypropylcellulose) (HPC) 95 % of control | [1] 101 % of control | [2] 92 % of control

N/C(=N\O)c1cn(C2OC(CO)C(O)C2O)c2ncnc(N)c12 (stereo not drawn)
inactive: [8] 91 % of control | dose: 2.0 mg/kg/injection, schedule: Q01DX009 (ip), vehicle: saline 88 % of control | dose: 4.0 mg/kg/injection, schedule: Q01DX009 (ip), vehicle: saline 98 % of control

CN=C(N)N/N=C(\C)c1ccc2oc3ccc(/C(C)=N/NC(N)=NC)cc3c2c1
inactive: [6] 98 % of control | [7] 118 % of control

C/C=C/C1=CC(=O)C(O)C1O (stereo not drawn)
inactive: dose: 25.0 mg/kg/injection, schedule: Q01DX009 (ip), vehicle: water 103 % of control | dose: 50.0 mg/kg/injection, schedule: Q01DX009 (ip), vehicle: water 99 % of control | dose: 100.0 mg/kg/injection, schedule: Q01DX009 (ip), vehicle: water 101 % of control

CO[C@@]12[C@H](COC(N)=O)C3=C(C(=O)C(C)=C(N)C3=O)N1C[C@@H]1N[C@@H]12
inactive: dose: 0.12 mg/kg/injection, schedule: Q01DX009 (ip), vehicle: saline 101 % of control | dose: 0.25 mg/kg/injection, schedule: Q01DX009 (ip), vehicle: saline 105 % of control | dose: 0.5 mg/kg/injection, schedule: Q01DX009 (ip), vehicle: saline 98 % of control | [8] 101 % of control
